Assay results from patent publication US20240216316A1, “DIHOMO-GAMMA LINOLENIC ACID (DGLA) IS A NOVEL SENOLYTIC” (Buck Institute for Research on Aging, priority 2020, published 2024).
Entries after “also recorded” stand apart in the source; their conditions may differ.

What was measured:
[1] = system: IMR-90; test: Cell counts of senescent vs nonsenescent IMR-90 treated with CP 24,879 plus sub-toxic DGLA; format: cell-based; details: 11.75 μM CP 24,879 in the presence of 10 μM DGLA; 72 hours; SEN(IR) vs NonSEN
Description: (§1) IMR-90 were induced to senesce via 10 Gy of ionizing radiation [SEN(IR)] and cultured for 7 days, followed by treatment with 11.75 μM CP 24,879 or vehicle (DMSO) in the presence of a sub-toxic concentration of DGLA (10 μM). Nonsenescent (NonSEN) cells served as a control. After 72 hours, cell numbers were counted and normalized to DMSO treatments.

[2] = target: delta-5-desaturase (D5D, gene name: FADS1) (Homo sapiens, UniProt O60427); details: as described in Obukowicz et al. (1998) / Miyahisa et al. (2016); cited from earlier work
Chain of delta-5-desaturase (D5D, gene name: FADS1) (O60427 whole entry, species assumed): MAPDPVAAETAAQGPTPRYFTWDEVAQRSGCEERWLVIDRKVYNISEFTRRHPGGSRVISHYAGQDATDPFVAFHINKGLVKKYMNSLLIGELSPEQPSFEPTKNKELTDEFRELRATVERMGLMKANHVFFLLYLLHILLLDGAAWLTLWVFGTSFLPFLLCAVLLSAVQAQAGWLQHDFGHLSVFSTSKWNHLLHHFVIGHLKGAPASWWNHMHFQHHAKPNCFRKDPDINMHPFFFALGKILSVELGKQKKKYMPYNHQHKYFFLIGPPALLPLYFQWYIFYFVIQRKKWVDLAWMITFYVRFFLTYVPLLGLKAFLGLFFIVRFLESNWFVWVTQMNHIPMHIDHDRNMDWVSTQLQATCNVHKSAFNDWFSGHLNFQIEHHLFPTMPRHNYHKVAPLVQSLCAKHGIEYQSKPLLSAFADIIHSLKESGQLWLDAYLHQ

[3] = target: T1, delta-6-desaturase (FADS2/D6D) (Homo sapiens, UniProt O95864); details: as described in Obukowicz et al. (1998); cited from earlier work
T1 sequence (O95864 1-444): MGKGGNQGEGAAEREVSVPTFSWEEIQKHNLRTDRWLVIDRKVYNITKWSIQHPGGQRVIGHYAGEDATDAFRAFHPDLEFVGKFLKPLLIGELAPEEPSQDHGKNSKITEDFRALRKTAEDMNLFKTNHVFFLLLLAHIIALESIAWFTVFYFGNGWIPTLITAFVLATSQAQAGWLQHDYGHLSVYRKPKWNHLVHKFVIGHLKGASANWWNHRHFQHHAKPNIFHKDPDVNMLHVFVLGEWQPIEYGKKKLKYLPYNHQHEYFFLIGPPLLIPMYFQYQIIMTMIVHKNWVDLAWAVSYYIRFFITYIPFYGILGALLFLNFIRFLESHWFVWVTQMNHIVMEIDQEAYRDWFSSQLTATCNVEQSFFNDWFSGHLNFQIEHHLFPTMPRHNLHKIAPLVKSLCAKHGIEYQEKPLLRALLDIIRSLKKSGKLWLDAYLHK

[4] = system: IMR-90; test: Cell counts and light microscopy of senescent vs nonsenescent IMR-90 treated with T3364366 in 10% or 0.2% FBS; format: cell-based; details: 72 hours; for FBS dependence of cell killing: 10% FBS vs 0.2% FBS, normalized to 0 dose groups
Description: as §1, with “the indicated doses of T3364366” for “11.75 μM CP 24,879 or vehicle (DMSO)”, “10% FBS (to provide PUFAs).” for “a sub-toxic concentration of DGLA (10 μM).”
Cells from FIG. 10 were visualized by light microscopy, allowing visualization of the cytotoxic properties of T334366 at various doses. (see, e.g., FIG. 11).
IMR-90 were induced to senesce via 10 Gy of ionizing radiation [SEN(IR)] and cultured for 7 days, followed by treatment with the indicated doses of T3364366 in the presence of 10% FBS (which provides PUFAs and growth factors) (FIG. 12, panels A and B—red line, squares) or 0.2% FBS (FIG. 12, panel B—purple line, circles) (which induces quiescence, but limits the ability of cells to synthesize DGLA). Nonsenescent (NonSEN) cells served as a control. After 72 hours, cell numbers were counted and normalized to the 0 dose treatment groups.

[5] = system: p16-positive cells; test: p16 promoter luminescence in aged P16-3MR mice before and after DGLA ethyl ester gavage; format: in vivo; details: P16-3MR mice aged 22 months; gavage 400 mg/kg for 5 consecutive days; measured two days after final gavage
Description: P16-3MR mice were aged for 22 months and luminescence (p16 promoter activity) was measured by luminometry (panel A). Mice were then gavaged with 400 mg/kg of DGLA ethyl ester or vehicle (phosal 50) for 5 consecutive days. Two days after the final gavage, luminescence was again measured (panel B). Six total mice were measured for luminescence and plotted before and after DGLA treatment (panel C).

[6] = system: p16-positive cells; test: Senescence-associated beta-galactosidase staining of epididymal fat and liver of aged P16-3MR mice; format: in vivo; details: P16-3MR mice aged 22 months; gavage 400 mg/kg for 5 consecutive days; tissues five days after final gavage
Description: P16-3MR mice were aged for 22 months, and gavaged with 400 mg/kg of DGLA ethyl ester or vehicle (phosal 50) for 5 consecutive days. Five days after the final gavage, epididymal fat and liver tissues were isolated and stained for senescence-associated beta-galactosidase.

[7] = system: senescent cells [SEN(IR)]; test: COX-2 dependence of DGLA killing of senescent cells (NS-398 or DMSO), light microscopy and cell counts; format: cell-based; details: SEN(IR) vs non-senescent; NS-398 (COX-2 inhibitor) or DMSO for 10 days, then 25 micromolar DGLA for 2 days
Description: Cells were either irradiated [SEN(IR)] or mock irradiated (non-senescent or “NonS”) and cultured continuously for 10 days in the presence of either NS-398 (a COX-2 inhibitor) or DMSO (vehicle). Cells were then treated with either carrier (BSA) or DGLA (25 micromolar) for 2 days, and images were captured by light microscopy.
(§2) Cells were treated as in FIG. 5. NS≡Non-senescent proliferating, SEN(IR)=IR-induced senescence, treated with 25 micromolar DGLA and either DMSO or NS-398. Panel A) Percent survival was calculated by cell counts relative to cells treated without DGLA. Panel B) Cells were stained for cleaved caspase 3 by immunofluorescence and expressed as stained cells relative to DAPI positive nuclei.
Since DGLA is converted to non-toxic arachidonic acid by D5D in most normal cells (Nakamura & Nara (2004) Annu. Rev. Nutr. 24: 345-376), the combination of gain of COX-2 and loss of D5D in senescent cells makes this an exploitable weakness. […] Its derivatives, the 1-series prostaglandins (PGX1's) are largely anti-inflammatory, and therefore may also have positive effects in the context of sterile inflammation associated with aging, so-called “inflammaging” (Franceschi & Campisi (2014) J. Gerontol. A Biol. Sci. Med. Sci. 69 (Suppl 1): S4-9).

[8] = system: senescent cells [SEN(IR)]; test: Cleaved caspase 3 immunofluorescence (apoptosis) after DGLA with NS-398 or DMSO; format: cell-based; details: 25 micromolar DGLA with DMSO or NS-398; stained cells relative to DAPI positive nuclei
Description: as §2

[9] = system: IMR-90 fibroblasts; test: DGLA toxicity to senescent vs mock-irradiated IMR-90 fibroblasts, light microscopy; format: cell-based; details: IMR-90 mock-irradiated or 10Gy IR, 10 days later 50 micromolar DGLA for 2 days
Description: (§3) IMR-90 fibroblasts were either mock-irradiated (Mock) or irradiated with 10Gy of ionization radiation (IR) to induce senescence. 10 days later, cells were cultured in the presence of either vehicle (media plus FBS carrier) or 50 micromolar DGLA for 2 days. Cells were then photographed using light microscopy.
as §3, with “To evaluate the effect of DGLA on senescent cells, IMR-90” for “IMR-90”, “senescence. Ten” for “senescence. 10”, “days later” for “days later,”

CC(C)CCOc1ccc(N)cc1.Cl [CP 24,879, 4-(3-methylbutoxy)-benzenamine, monohydrochloride]
killing of senescent cells (cell numbers normalized to DMSO) [1]: selectively kills senescent cells
inhibition of delta-5-desaturase [2]: inhibitor of both delta-5- and delta-6-desaturase
inhibition of delta-6-desaturase [3]: inhibitor of both delta-5- and delta-6-desaturase

CC(=O)NCCSc1nc2cscc2c(=O)n1-c1ccc(OCC(F)(F)F)cc1 [Compound T3364366, N-[2-[[3,4-Dihydro-4-oxo-3-[4-(2,2,2-trifluoroethoxy)phenyl]thieno[3,4-d]pyrimidin-2-yl]thio]ethyl]acetamide]
FBS dependence of cell killing [4]: only kills senescent cells in the presence of FBS
FBS dependence of cell killing ([4]; listed as T334366): FBS-dependent killing of senescent cells
killing of senescent cells (cell numbers normalized to DMSO) ([4]; indicated doses, 10% FBS, SEN(IR) vs NonSEN): selectively kills senescent cells
inhibition of delta-5-desaturase [2]: specific inhibitor of delta-5-desaturase

CCCCC/C=C\C/C=C\C/C=C\CCCCCCC(=O)OCC [DGLA ethyl ester]
burden of p16-positive cells (luminescence, p16 promoter activity) [5]: lowers the burden of p16-positive cells
senescence-associated beta-galactosidase in epididymal fat and liver tissues [6]: lowers the burden of p16-positive cells

CCCCC/C=C\C/C=C\C/C=C\CCCCCCC(=O)O [DGLA, dihomo-gamma-linolenic acid]
senescence-associated beta-galactosidase in epididymal fat and liver tissues [6]: less senescence-associated beta-glactodsidase was observed
killing of senescent cells, COX-2 dependence [7]: selectively toxic to senescent cells in a COX-2 dependent manner; also recorded: kills senescent cells in a COX-2-dependent manner
apoptosis in senescent cells (cleaved caspase 3), COX-2 dependence [8]: induces apoptosis in senescent cells in a COX-2-dependent manner
toxicity to senescent cells [9]: selectively toxic to senescent cells
